According to patent US20040097408A1, “Compounds regulating cell proliferation and differentiation” (priority 2001, published 2004):
“And” between values parts separate entries of the source, which are not always exact repeats. Equal values may be shown once.

Experiments:
AC816 [1] = assay: cell count proliferation assay; type: cell-based, mouse; set-up: key: +: A positive scoring in these Tables represent cells in which a 2-5 and a 10-40 fold reduction in the total number of cells relative to the control untreated cells was observed after 3 and 7 days of culture with F16, respectively; conditions: AC816, Ras, breast; F16 3 μM, cells counted after 3 and 7 days
Source text: The following panel of mouse tumor cell lines derived from Neu, Ras and Myc transgenic mice and panel of human cancer cell lines were used: a) Neu-initiated mouse tumor cell lines NF980, NF324-2A, NF324-1B, SMF, NAF, Neu4145, n-Neu, Ras-initiated mouse tumor cell lines SH1,1, AC236, AC711, AC816, ACp53^−#1, ACp53^−4782, AC222, AC99, AC260, ACp53^−#19, ACp53^−#16, AC/Balb6.6, AC/Balb14, AC/Balb12 and Myc-initiated mouse tumor cell lines 16MB9a, 13MA1a; and b) human breast tumor cell lines MDA-MB231, MDA-MB435, MDA-MB436, MDA-MB453, MDA-MB-468, SKBR-3, MCF-7, T47D, ZR75; human prostate cancer cell lines LNCaP, PC-3, DU145 and the human ovarian cancer cell line SKOV-3.
For each cell line, 10^5 cells were seeded in 4×6 well plates. Next day, F16 was added at 3 μM to the medium of 2 of the plates, while the other two were left untreated (control). Cells were counted 3 days and 7 days after initiation of treatment.
A positive scoring in these Tables represent cells in which a 2-5 and a 10-40 fold reduction in the total number of cells relative to the control untreated cells was observed after 3 and 7 days of culture with F16, respectively.

AC816 [2] = assay: cell cycle phases by BrdU incorporation / FACS; type: cell-based, mouse; conditions: F16 3 μM, 30 hr
Procedure: (§1) The percentage of cells in the different phases of the cell cycle was assessed by measuring BrdU incorporation into the DNA of the cells. BrdU incorporation into DNA of untreated or F16 treated (3 μM/30-36 hr) EpH-EV and EpH-A6 cells was assessed by FACS as follows. After F16 or mock treatment, the cells were pulsed with BrdU (20 μM) for 1 hour and then fixed in 70% ethanol at −20° C. overnight. Next morning cells were washed twice with 1×PBS and the DNA was denatured by incubation of the cells in 2N HCl/0.5% Triton X-100. The cells were then washed twice in 0.1M Na2B2O7, and once in PBS. The cells were resuspended in PBS, incubated with 20 μL of anti-BrdU/FITC(Becton Dickinson) for 1 hour and subsequently washed with 1×PBS and resuspended in PBS. RNA was digested with RNaseA (1 μL of 10 mg/mL stock) at 37° C. for 30 minutes. Finally, the cells were diluted with 1 mL of 5 μg/mL propidium iodide/PBS and incubated on ice for 15 minutes. The labeled cells were analyzed using the FACSCalibur (Becton Dickinson).
(§2) The effect of F16 (3 μM) on BrdU incorporation into DNA of various Neu-induced, Ras-induced and Myc-induced tumor cells lines was examined using the same technique. The results, which are shown in Table 3, indicate that, except for 16MB9a, a myc tumor cell line that is not affected by F16, the other cell lines, all of which are sensitive to F16 show, as expected, a decrease in the percentage of cells in the S phase and an increase in the percentage of cells in G1 after 30 hr of incubation in medium containing F16 (3 μM). In some cases, an increase in the amount of cells in G2 phase was observed. This may reflect the heterogeneity of the tumor cells, some of which may have acquired defects in various cell cycle regulators as secondary events.

[3] = system: Myc (16MB9a, a myc tumor cell line); assay: cell cycle phases by BrdU incorporation / FACS; type: cell-based, mouse; conditions: Myc tumor cell line (16MB9a); F16 3 μM, 30 hr
Procedure: as §1, §2

NAF = assay: cell cycle phases by BrdU incorporation / FACS; type: cell-based, mouse; conditions: F16 3 μM, 30 hr
Procedure: as §1, §2

NF980 = assay: cell cycle phases by BrdU incorporation / FACS; type: cell-based, mouse; conditions: F16 3 μM, 30 hr
Procedure: as §1, §2

SH1.1 = assay: cell cycle phases by BrdU incorporation / FACS; type: cell-based, mouse; conditions: F16 3 μM, 30 hr
Procedure: as §1, §2

n-Neu = assay: cell cycle phases by BrdU incorporation / FACS; type: cell-based, mouse; conditions: F16 3 μM, 30 hr
Procedure: as §1, §2

EpH-A6 cells = assay: cell cycle phases by BrdU incorporation / FACS; type: cell-based, mouse; conditions: 3 μM F16, 30-36 hr, FIG. 5
Procedure: as §1

[4] = system: kidney, heart and liver samples; assay: pathology examination of kidney, liver and heart; type: in vivo, mouse; conditions: four F16 treated and four placebo mice
Source text: All the tumors from the twenty mice as well as kidney, liver and heart samples from four placebo and four F16 treated mice were sent for pathology examination. […] Necrosis probably results from the lack of sufficient blood supply to these fast growing tumors.

16MB9a = assay: uptake/retention of F16 by fluorescence microscopy; type: cell-based, mouse; conditions: 3 μM F16, 24 hours
Procedure: (§3) The following cell lines were used in this Example: EpH4-A6 (Neu^T); EpH4-EV; Neu-initiated mouse tumor cell lines NF980, NAF and nNeu; Ras-initated tumor cell lines SH1.1 and AC816; a Myc-initiated tumor cell line 16MB9a; and normal mammary epethileal cells HC11, NuMg and EpH4. The cells were grown on 60 mm plates and incubated with medium alone or medium containing 3 μM F16 for 24 hours at 37° C. The fluorescence signal of F16 was visualized under inverted microscope Axiovert (Zeiss) using a standard fluorescein filter set. Cells were photographed using a digital camera D1 (Nikon).

EpH4-A6 cells = assay: uptake/retention of F16 by fluorescence microscopy; type: cell-based, mouse; conditions: 3 μM F16, 24 hours
Procedure: as §3

EpH4-EV cells = assay: uptake/retention of F16 by fluorescence microscopy; type: cell-based, mouse; conditions: 3 μM F16, 24 hours
Procedure: as §3

[5] = system: ras- and neu-initiated tumor cell lines; assay: uptake/retention of F16 by fluorescence microscopy; type: cell-based, mouse; conditions: 3 μM F16, 24 hours
Procedure: as §3

[6] = system: isolated mouse liver mitochondria; assay: swelling of isolated mitochondria (permeability transition pore opening); type: biochemical; conditions: 0.5 mg/ml mitochondria
Procedure: Mitochondria were isolated from liver of Balb/c7 mice by standard differential centrifugation, and resuspended in isolation buffer (0.2 M sucrose, 10 mM Tris-MOPS pH 7.4, 0.1 mM EGTA-Tris, 0.1% delipidated BSA) (Costantini et al. (1995) Toxicology (99) 77-88). Protein concentration was determined by Bradford assay. For swelling determination, changes in side scatter at 545±2.5 nm of a 0.5 mg/ml suspension of mitochondria in experimental buffer (125 mM KCl, 10 mM Tris-MOPS pH 7.4, 1 mM Pi, 5 mM glutamate, 2.5 mM malate, 10 μM EGTA-Tris, pH 7.4) were monitored by using LS-50B spectrofluorimeter. […] All reactions were performed at 25° C. and the instrument was equipped with magnetic stirring.

C[n+]1ccc(/C=C/c2c[nH]c3ccccc23)cc1.[I-] [F16]
F16 response (AC816 [1]): +
With F16 % G1 (AC816 [2]): 96.8% and 95.1%
With F16 % G2 (AC816 [2]): 2.7% and 2.8%
With F16 % S (AC816 [2]): 0.1% and 0.2%
With F16 % G1 [3]: 82.7% and 83.8%
With F16 % G2 [3]: 1.5%
With F16 % S [3]: 12.8% and 12.7%
With F16 % G1 (NAF): 86.8%
With F16 % G2 (NAF): 3.6%
With F16 % S (NAF): 4.7%
With F16 % G1 (NF980): 68.6% and 69.6%
With F16 % G2 (NF980): 12.4% and 8.9%
With F16 % S (NF980): 17.3% and 17.0%
With F16 % G1 (SH1.1): 81.3% and 79.7%
With F16 % G2 (SH1.1): 10.4% and 13.2%
With F16 % S (SH1.1): 7.1%
With F16 % G1 (n-Neu): 64.5% and 61.5%
With F16 % G2 (n-Neu): 15.4% and 17.8%
With F16 % S (n-Neu): 18.2% and 19.6%
percentage of cells in G1 phase (EpH-A6 cells): increase
percentage of cells in the S phase (EpH-A6 cells): dramatic decrease
pathology of kidney, heart and liver samples versus placebo [4]: no major differences
uptake/retention of F16 (fluorescence) (16MB9a): does not show fluoresence
uptake/retention of F16 (fluorescence) (EpH4-A6 cells): very intense fluorescent green punctuated staining
uptake/retention of F16 (fluorescence) (EpH4-EV cells): do not show any uptake/retention
uptake/retention of F16 (fluorescence) [5]: very intense fluorescent green punctuated staining
swelling of purified mitochondria [6]: swelling of purified mitochondria in a dose-dependent fashion
